From patent publication US11691962B2 (eXIthera Pharmaceuticals, Inc., priority 2018, dated 2023) come the findings set out here.

A value given as a limit tells only on which side of the number the result lay.

Holding throughout (assay type): biochemical
In one experiment the target is Factor XIa (Homo sapiens (Human), UniProt P03951). Briefly: Factor XIa enzyme inhibition assay (dose response, fluorogenic AMC substrate). To be noted: read-out: hFXIa IC50. The procedure, abridged: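 Fluorogenic progress curves (30 min, 1-min reads, 30° C) were recorded for 0.25 nM FXIa cleaving 50 μM Glp-Pro-Arg-AMC in Hepes pH 7.4 buffer with NaCl and Tween 20. Compounds were serially two-fold diluted, and IC50 was fitted with a Hill equation.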
Sequence of Factor XIa (P03951 388-625): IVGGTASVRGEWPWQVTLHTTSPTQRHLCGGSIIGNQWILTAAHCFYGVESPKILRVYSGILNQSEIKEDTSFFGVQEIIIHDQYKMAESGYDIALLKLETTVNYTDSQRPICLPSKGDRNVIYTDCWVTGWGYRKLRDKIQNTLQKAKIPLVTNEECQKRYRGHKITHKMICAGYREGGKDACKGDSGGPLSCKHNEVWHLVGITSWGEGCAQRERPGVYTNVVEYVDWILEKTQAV
Sequence of Factor XIa (P03951 19-387 partner): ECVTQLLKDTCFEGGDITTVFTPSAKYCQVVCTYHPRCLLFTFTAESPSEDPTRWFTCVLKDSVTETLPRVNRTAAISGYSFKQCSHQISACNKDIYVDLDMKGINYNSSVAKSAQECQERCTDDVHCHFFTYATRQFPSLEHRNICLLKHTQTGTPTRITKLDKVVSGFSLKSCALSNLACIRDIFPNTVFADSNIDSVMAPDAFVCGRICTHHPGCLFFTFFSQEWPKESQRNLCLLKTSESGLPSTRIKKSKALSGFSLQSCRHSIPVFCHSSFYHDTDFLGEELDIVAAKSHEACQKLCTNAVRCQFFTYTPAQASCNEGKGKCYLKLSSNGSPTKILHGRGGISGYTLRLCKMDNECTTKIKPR

A further experiment concerns Trypsin. Briefly: Dose response assay for protease inhibitors: trypsin. To be noted: selectivity, trypsin over Factor XIa. On the procedure:
(§1) • Assay buffer: 20 mM Hepes, pH 7.4; 150 mM NaCl; 0.02% Tween 20 • Compounds: 10 mM stocks in DMSO • Substrate: 20 mM Glp-Pro-Arg-AMC, 25 mg/2.3 mL H2O (store at +4° C.) [Factor XIa, thrombin, and trypsin] • 20 mM Pro-Phe-Arg-AMC (Bachem I-1295), 25 mg/2.2 mL H2O • or Boc-Leu-Gly-Arg-AMC (Bachem I-1105), 25 mg/2.07 mL H2O • (store at +4° C.) [Factor Xa] • Enzyme: Factor XIa; 0.25 μM in 50% glycerol (20 μg/mL) • Trypsin; 0.2 μM in 50% glycerol (4.8 μg/mL) • Thrombin; 0.2 μM in 50% glycerol (7.34 μg/mL) • Factor Xa; 0.2 μM in 50% glycerol (9.2 μg/mL) • These stocks are aliquoted (˜100 μL/aliquot) and stored at −20° C. Methods: • 1. Dilute the substrate to 100 μM in assay buffer (30 μL/6 mL). The enzyme is diluted to 0.5 nM just prior to use (12 μL/6 mL for Factor XIa; 15 μL/6 mL for all of the rest.) • 2. Pipette 50 μL of substrate into each well of the 96 well (12×8) microtiter plate. (Column 1 is used as the 100% activity control and receives no compound, and Column 12 is the blank and receives no enzyme.) Add an additional 46 μL to column 2. • 3. Pipette 4 μL of each compound into the appropriate well in column 2 of the plate (unknowns assayed in triplicate, standard assayed in duplicate). The final compound concentration will be […] of the stock. • 4. Serially two-fold dilute the compound by mixing the sample in column 2, removing 50 μL to the next well (column 3), mix and remove to column 4, etc. until column 11. After mixing column 11, remove 50 μL and discard. • 5. Pipette 50 μL of buffer into column 12. Initiate the reaction by adding 50 μL of enzyme solution to each well of columns 1-11 as rapidly as possible. • 6. Read the plate in a spectrophotometer (SpectraMax) at 30° C., wherein each well is measured every 60 s for 30 min. For Factor Xa assays, each well is measured every 1 min for a total of 60 min. • 7. For Factor XIa assays, the compounds are assayed, in duplicate, at 3 different starting concentrations, 20, 2, and 0.2 μM; 1:10, 1:100, and 1:1000 dilution of 10 mM stock or at 2, 0.2, and 0.02 μM; 1:100, 1:1000, and 1:10,000 dilution of 10 mM stock. Data for each concentration are combined for graphing and data fitting. • 8. Data can be used both for estimation of IC50 and for estimation of Kon.

For a further experiment, the target named is Factor Xa (Homo sapiens (Human), UniProt P00742). Briefly: Dose response assay for protease inhibitors: Factor Xa. To be noted: selectivity, Factor Xa over Factor XIa. On the procedure:
as §1

The next experiment concerns the target Thrombin (Homo sapiens (Human), UniProt P00734). Briefly: Dose response assay for protease inhibitors: thrombin. To be noted: selectivity, thrombin over Factor XIa. On the procedure:
as §1

Sequence of Factor Xa (P00742 235-488): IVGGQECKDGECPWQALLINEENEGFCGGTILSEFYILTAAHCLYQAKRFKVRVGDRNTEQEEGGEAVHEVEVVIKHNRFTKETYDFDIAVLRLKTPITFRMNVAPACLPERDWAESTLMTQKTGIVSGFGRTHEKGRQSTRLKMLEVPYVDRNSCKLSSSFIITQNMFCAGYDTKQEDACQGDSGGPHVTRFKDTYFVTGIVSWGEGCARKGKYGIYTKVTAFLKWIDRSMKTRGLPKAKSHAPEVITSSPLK
Sequence of Factor Xa (P00742 41-179 partner): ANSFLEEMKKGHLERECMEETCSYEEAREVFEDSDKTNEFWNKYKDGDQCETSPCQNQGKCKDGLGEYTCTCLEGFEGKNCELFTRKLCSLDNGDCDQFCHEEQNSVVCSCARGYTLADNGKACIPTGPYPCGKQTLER

Turning to `CN(C(=O)[C@@H]1[C@@H](Cc2ccnc(N)c2)C(=O)N1C(=O)NC(c1cccc(Cl)c1)C(F)(F)F)c1ccn(C)n1` (stereo in doubt) [Compound 1-38, (2S,3R)-3-((2-aminopyridin-4-yl)methyl)-N2-(1-methyl-1H-pyrazol-3-yl)-N1-((R)-1-(3-chlorophenyl)-2,2,2-trifluoroethyl)-N2-methyl-4-oxoazetidine-1,2-dicarboxamide], the concentration for half-maximal inhibition (IC50) (as a rule, the concentration needed to halve the response being measured) on Factor XIa is less than 0.01 µM. In the experiment on Trypsin, the “Ratio: Trypsin/FXIa” value was “G (“G” indicates 1-100)”. The “Ratio: FXa/FXIa” value on Factor Xa was “H (“H” indicates 101-1000)”. Moreover, at Thrombin, the “Ratio: Thrombin/FXIa” value is on record as “G (“G” indicates 1-100)”.
On to `CN(C(=O)[C@@H]1[C@@H](Cc2ccnc(N)c2)C(=O)N1C(=O)NC(C1CCCCC1)C(F)(F)F)c1nccn1C` (stereo in doubt) [Compound 1-56, (2S,3R)-3-((2-aminopyridin-4-yl)methyl)-N2-(1-methyl-1H-imidazol-2-yl)-N1-((R)-1-cyclohexyl-2,2,2-trifluoroethyl)-N2-methyl-4-oxoazetidine-1,2-dicarboxamide], for which the IC50 at Factor XIa was less than 0.01 µM. The “Ratio: Trypsin/FXIa” value in the experiment on Trypsin was “G (“G” indicates 1-100)”. In addition, the “Ratio: FXa/FXIa” value on Factor Xa was “I (“I” indicates > 500)”. Further, the “Ratio: Thrombin/FXIa” value on Thrombin is given as “H (“H” indicates 101-1000)”.
As to `CC[C@@H](NC(=O)N1C(=O)[C@H](Cc2ccnc(N)c2)[C@H]1C(=O)N(C)c1cncs1)c1ccccc1` [Compound 1-12, (2S,3R)-3-((2-aminopyridin-4-yl)methyl)-N2-(5-thiazolyl)-N1-((R)-1-phenylpropyl)-N2-methyl-4-oxoazetidine-1,2-dicarboxamide], at Factor XIa, the IC50 was less than 0.01 µM. Moreover, the “Ratio: Trypsin/FXIa” value in the experiment on Trypsin is on record as “G (“G” indicates 1-100)”. The “Ratio: FXa/FXIa” value on Factor Xa was “H (“H” indicates 101-1000)”. The “Ratio: Thrombin/FXIa” value at Thrombin is recorded as “H (“H” indicates 101-1000)”.
In the case of `CC[C@@H](NC(=O)N1C(=O)[C@H](Cc2ccnc(N)c2)[C@H]1C(=O)N(C)c1nccn1C)c1ccc(C)c(C)c1C` [Compound 1-209, (2S,3R)-3-((2-aminopyridin-4-yl)methyl)-N2-(1-methyl-1H-imidazol-2-yl)-N1-((R)-1-(2,3,4-trimethylphenyl)propyl)-N2-methyl-4-oxoazetidine-1,2-dicarboxamide], the IC50 at Factor XIa was less than 0.01 µM.
Take `CC[C@@H](NC(=O)N1C(=O)[C@H](Cc2ccnc(N)c2)[C@H]1C(=O)N(C)c1nccn1C)c1ccc(F)c(F)c1F` [Compound 1-210, (2S,3R)-3-((2-aminopyridin-4-yl)methyl)-N2-(1-methyl-1H-imidazol-2-yl)-N1-((R)-1-(2,3,4-trifluorophenyl)propyl)-N2-methyl-4-oxoazetidine-1,2-dicarboxamide]: on Factor XIa, the IC50 is less than 0.01 µM.
Same read-out and setting: the figure for `CC[C@@H](NC(=O)N1C(=O)[C@H](Cc2ccnc(N)c2)[C@H]1C(=O)N(C)c1nccn1C)c1ccc(F)c(C)c1C` [Compound 1-211, (2S,3R)-3-((2-aminopyridin-4-yl)methyl)-N2-(1-methyl-1H-imidazol-2-yl)-N1-((R)-1-(2,3-dimethyl-4-fluorophenyl)propyl)-N2-methyl-4-oxoazetidine-1,2-dicarboxamide] is less than 0.01 µM.
As to `CC[C@@H](NC(=O)N1C(=O)[C@H](Cc2ccnc(N)c2)[C@H]1C(=O)N(C)c1nccn1C)c1ccc(F)c(F)c1C` [Compound 1-212, (2S,3R)-3-((2-aminopyridin-4-yl)methyl)-N2-(1-methyl-1H-imidazol-2-yl)-N1-((R)-1-(3,4-difluoro-2-methylphenyl)propyl)-N2-methyl-4-oxoazetidine-1,2-dicarboxamide], the IC50 at Factor XIa is less than 0.01 µM.
On the same count and under the same terms, for `CC[C@@H](NC(=O)N1C(=O)[C@H](Cc2ccnc(N)c2)[C@H]1C(=O)N(C)c1ccnn1C)c1cccc(F)c1F` [Compound 1-213, (2S,3R)-3-((2-aminopyridin-4-yl)methyl)-N2-(1-methyl-1H-pyrazol-5-yl)-N1-((R)-1-(2,3-difluorophenyl)propyl)-N2-methyl-4-oxoazetidine-1,2-dicarboxamide] the value was less than 0.01 µM; for `CC[C@@H](NC(=O)N1C(=O)[C@H](Cc2ccnc(N)c2)[C@H]1C(=O)N(C)c1ccnn1C)c1ccc(F)c(C)c1` [Compound 1-214, (2S,3R)-3-((2-aminopyridin-4-yl)methyl)-N2-(1-methyl-1H-pyrazol-5-yl)-N1-((R)-1-(4-fluoro-3-methylphenyl)propyl)-N2-methyl-4-oxoazetidine-1,2-dicarboxamide], less than 0.01 µM.
Same read-out and setting: the figure for `CC[C@@H](NC(=O)N1C(=O)[C@H](Cc2ccnc(N)c2)[C@H]1C(=O)N(C)c1ccnn1C)c1ccc(F)c(F)c1` [Compound 1-215, (2S,3R)-3-((2-aminopyridin-4-yl)methyl)-N2-(1-methyl-1H-pyrazol-5-yl)-N1-((R)-1-(3,4-difluorophenyl)propyl)-N2-methyl-4-oxoazetidine-1,2-dicarboxamide] is less than 0.01 µM; for `CC[C@@H](NC(=O)N1C(=O)[C@H](Cc2ccnc(N)c2)[C@H]1C(=O)N(C)c1ccnn1C)c1ccc(C)c(F)c1` [Compound 1-216, (2S,3R)-3-((2-aminopyridin-4-yl)methyl)-N2-(1-methyl-1H-pyrazol-5-yl)-N1-((R)-1-(3-fluoro-4-methylphenyl)propyl)-N2-methyl-4-oxoazetidine-1,2-dicarboxamide] it is less than 0.01 µM; for `CC[C@@H](NC(=O)N1C(=O)[C@H](Cc2ccnc(N)c2)[C@H]1C(=O)N(C)c1ccnn1C)c1cc(F)ccc1F` [Compound 1-217, (2S,3R)-3-((2-aminopyridin-4-yl)methyl)-N2-(1-methyl-1H-pyrazol-5-yl)-N1-((R)-1-(2,5-difluorophenyl)propyl)-N2-methyl-4-oxoazetidine-1,2-dicarboxamide] it is less than 0.01 µM.
In the case of `CC[C@@H](NC(=O)N1C(=O)[C@H](Cc2ccnc(N)c2)[C@H]1C(=O)N(C)c1nccn1C)c1ccc(C)c(C)c1F` [Compound 1-218, (2S,3R)-3-((2-aminopyridin-4-yl)methyl)-N2-(1-methyl-1H-imidazol-2-yl)-N1-((R)-1-(2-fluoro-3,4-dimethylphenyl)propyl)-N2-methyl-4-oxoazetidine-1,2-dicarboxamide], at Factor XIa, the IC50 is less than 0.01 µM.
For the compound `CC[C@@H](NC(=O)N1C(=O)[C@H](Cc2ccnc(N)c2)[C@H]1C(=O)N(C)c1ccnn1C)c1cc(F)ccc1C` [Compound 1-219, (2S,3R)-3-((2-aminopyridin-4-yl)methyl)-N2-(1-methyl-1H-pyrazol-5-yl)-N1-((R)-1-(5-fluoro-2-methylphenyl)propyl)-N2-methyl-4-oxoazetidine-1,2-dicarboxamide], the IC50 at Factor XIa was less than 0.01 µM.
`CC[C@H](NC(=O)N1C(=O)[C@H](Cc2ccnc(N)c2)[C@H]1C(=O)N(C)c1nccn1C)c1cccc(F)c1` [Compound 1-220, (2S,3R)-3-((2-aminopyridin-4-yl)methyl)-N2-(1-methyl-1H-imidazol-2-yl)-N1-((S)-1-(3-fluorophenyl)propyl)-N2-methyl-4-oxoazetidine-1,2-dicarboxamide]: the IC50 at Factor XIa was 0.01 to 0.1 µM.
On to `CC[C@H](NC(=O)N1C(=O)[C@H](Cc2ccnc(N)c2)[C@H]1C(=O)N(C)c1nccn1C)c1cc(F)ccc1F` [Compound 1-221, (2S,3R)-3-((2-aminopyridin-4-yl)methyl)-N2-(1-methyl-1H-imidazol-2-yl)-N1-((S)-1-(2,5-difuorophenyl)propyl)-N2-methyl-4-oxoazetidine-1,2-dicarboxamide], for which the IC50 on Factor XIa was 0.1 to 1 µM.
With “(2S,3R)-3-((2-aminopyridin-4-yl)methyl)-N2-(1-methyl-1H-imidazol-2-yl)-N1-((R)-1-(3-chlorophenyl)propyl)-N1-methyl-N2-methyl-4-oxoazetidine-1,2-dicarboxamide [Compound 1-65]”, the IC50 on Factor XIa is 0.01 to 0.1 µM.
